Source: patent US12590134B2, “GLP-1 agonist polypeptide compound and salt thereof, synthesis method therefor and use thereof” (Sinopep-Allsino Biopharmaceutical Co., Ltd., priority 2020, dated 2026)
Where two headings read alike, the source gives them in different places. Numbered stars: 1 amine (or outer) side, 2 acyl side, 3 side chain; on linkers, the order of the positions; unused ones are H or OH. Square brackets hold non-standard residues; d marks the D form. Side chains are listed from the residue outwards. Peptide text beside a SMILES is read from it. * marks the point of attachment. C18 diacid = O=C(O)CCCCCCCCCCCCCCCCC(=O)*; γGlu = O=C(O)[C@H](CCC(=O)[*:2])N[*:1]; dNva = CCC[C@@H](N)C(=O)O; AEEA = NCCOCCOCC(=O)O

What was measured:
human GLP-1R = human GLP-1R (Homo sapiens, UniProt P43220); experiment: cAMP signal analysis of GLP-1R (GLP-1 receptor agonist activity); format: cell-based
Sequence of human GLP-1R (P43220 24-463): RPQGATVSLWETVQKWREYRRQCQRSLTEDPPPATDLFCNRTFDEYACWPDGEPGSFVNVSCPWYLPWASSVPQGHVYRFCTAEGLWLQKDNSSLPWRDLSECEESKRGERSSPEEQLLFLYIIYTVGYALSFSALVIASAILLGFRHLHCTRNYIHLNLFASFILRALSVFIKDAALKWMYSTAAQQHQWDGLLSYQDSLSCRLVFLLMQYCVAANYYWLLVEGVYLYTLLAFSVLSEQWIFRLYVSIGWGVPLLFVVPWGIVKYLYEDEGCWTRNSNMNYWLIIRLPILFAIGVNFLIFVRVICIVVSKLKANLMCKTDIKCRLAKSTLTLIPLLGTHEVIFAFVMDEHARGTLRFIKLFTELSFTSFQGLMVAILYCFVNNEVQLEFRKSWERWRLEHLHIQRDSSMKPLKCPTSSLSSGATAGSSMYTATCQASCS
Method: A wild human GLP-1R (NM_002062.5) was subjected to transient transfection and screened for two weeks by 600 μg/ml of hygromycin-B to obtain a cell line which was recombined and integrated into an FlpInCHO (Invitrogen) cell stable expression system. The culture condition of the FlpInCHO cell was as follows: 10% of heat-inactivated fetal calf serum was added to a DMEM culture solution, and the culture was performed in a 5% carbon dioxide cell incubator.
In the test, an LANCE cAMP detection kit was used for measuring the cAMP signal intensity.

[1] = Pharmacokinetic comparison experiment in rats, single subcutaneous injection; settings: rat, in vivo, sc, 0.02 mg/kg
Method: A single subcutaneous injection was performed with a dose of 0.02 mg/kg; blood collection was performed by tail clipping, and the blood collection time points were: 0 h, 15 min, 30 min, 1 h, 2 h, 3 h, 4 h, 6 h, 8 h, 24 h, 48 h and 72 h. The compound concentration in plasma was determined by LC-MS/MS, all data were collected and exported by Unifi 1.9.3 software, and Excel software was used for data calculation. A non-compartmental model of DAS 3.0 software was used to calculate the pharmacokinetic parameters of rats after administration.

[2] = CHO cell line stably expressing human GLP-1R, downstream cAMP signal, LANCE cAMP kit, read-out: GLP-1R EC50

Which EC50 (human GLP-1R; [2]) does the source give for CC[C@H](C)[C@H](NC(=O)[C@H](Cc1ccccc1)NC(=O)[C@H](CCC(=O)O)NC(=O)[C@H](CCCCNC(=O)COCCOCCNC(=O)COCCOCCNC(=O)CC[C@H](NC(=O)CCCCCCCCCCCCCCCCC(=O)O)C(=O)O)NC(=O)[C@H](C)NC(=O)[C@H](C)NC(=O)[C@H](CCC(N)=O)NC(=O)[C@](C)(CC)NC(=O)[C@H](CCC(=O)O)NC(=O)[C@H](CC(C)C)NC(=O)[C@H](Cc1ccc(O)cc1)NC(=O)[C@H](CO)NC(=O)[C@H](CO)NC(=O)[C@@H](NC(=O)[C@H](CC(=O)O)NC(=O)[C@H](CO)NC(=O)[C@@H](NC(=O)[C@H](Cc1ccccc1)NC(=O)[C@@H](NC(=O)CNC(=O)[C@H](CCC(=O)O)NC(=O)[C@](C)(CC)NC(=O)[C@@H](N)Cc1c[nH]cn1)[C@@H](C)O)[C@@H](C)O)C(C)C)C(=O)N[C@@H](C)C(=O)N[C@@H](Cc1c[nH]c2ccccc12)C(=O)N[C@@H](CC(C)C)C(=O)N[C@H](C(=O)N[C@@H](CCCNC(=N)N)C(=O)NCC(=O)N[C@@H](CCCNC(=N)N)C(=O)NCC(=O)O)C(C)C [NO: 3] here?
Its EC50 is 2.84 ± 0.513 nM.

What about the CL/F ([1]; male) of the same compound?
Its CL/F is 0.133 mL/min/kg.

What about the half-life ([1]; male) of the same compound?
Its half-life is 15.4 h.

And the AUC(0-inf) [1]?
The AUC(0-inf) was 2810 ng·h/mL.

What about the AUC(0-t) [1] of the same compound?
The AUC(0-t) was 2630 ng·h/mL.

And the “AUMC(0-t), Mean” value [1]?
The value was 73156.82 h * h * μg/L.

What about the “AUMC(0-∞), Mean” value [1] of the same compound?
The value was 89827.62 h * h * μg/L.

And the Cmax [1]?
The Cmax was 66.8 ng/mL.

And the “R_AUC(t/∞), Mean” value [1]?
The value was 93.53%.

What about the Tmax [1] of the same compound?
Its Tmax is 24 h.

And the Vd/F [1]?
The Vd/F was 0.17 L/kg.

With CCC[C@@H](NC(=O)[C@H](CCC(=O)O)NC(=O)[C@H](CC(C)C)NC(=O)[C@H](Cc1ccc(O)cc1)NC(=O)[C@H](CO)NC(=O)[C@H](CO)NC(=O)[C@@H](NC(=O)[C@H](CC(=O)O)NC(=O)[C@H](CO)NC(=O)[C@@H](NC(=O)[C@H](Cc1ccccc1)NC(=O)[C@@H](NC(=O)CNC(=O)[C@H](CCC(=O)O)NC(=O)[C@@H](CCC)NC(=O)[C@@H](N)Cc1c[nH]cn1)[C@@H](C)O)[C@@H](C)O)C(C)C)C(=O)N[C@@H](CCC(N)=O)C(=O)N[C@@H](C)C(=O)N[C@@H](C)C(=O)N[C@@H](CCCCNC(=O)COCCOCCNC(=O)COCCOCCNC(=O)CC[C@H](NC(=O)CCCCCCCCCCCCCCCCC(=O)O)C(=O)O)C(=O)N[C@@H](CCC(=O)O)C(=O)N[C@@H](Cc1ccccc1)C(=O)N[C@H](C(=O)N[C@@H](C)C(=O)N[C@@H](Cc1c[nH]c2ccccc12)C(=O)N[C@@H](CC(C)C)C(=O)N[C@H](C(=O)N[C@@H](CCCNC(=N)N)C(=O)NCC(=O)N[C@@H](CCCNC(=N)N)C(=O)NCC(=O)O)C(C)C)[C@@H](C)CC [NO: 15] (H-H[dNva]EGTFTSDVSSYLE[dNva]QAAK([AEEA-AEEA-γGlu-C18 diacid])EFIAWLVRGRG-OH) as the compound, how does the EC50 (human GLP-1R; [2]) read?
The EC50 was 2.9 ± 0.39 nM.

Which EC50 (human GLP-1R) does the source give for CC[C@H](C)[C@H](NC(=O)[C@H](Cc1ccccc1)NC(=O)[C@H](CCC(=O)O)NC(=O)[C@H](CCCCNC(=O)COCCOCCNC(=O)COCCOCCNC(=O)CC[C@H](NC(=O)CCCCCCCCCCCCCCCCC(=O)O)C(=O)O)NC(=O)[C@H](C)NC(=O)[C@H](C)NC(=O)[C@H](CCC(N)=O)NC(=O)[C@@H]1CCCN1C(=O)[C@H](CCC(=O)O)NC(=O)[C@H](CC(C)C)NC(=O)[C@H](Cc1ccc(O)cc1)NC(=O)[C@H](CO)NC(=O)[C@H](CO)NC(=O)[C@@H](NC(=O)[C@H](CC(=O)O)NC(=O)[C@H](CO)NC(=O)[C@@H](NC(=O)[C@H](Cc1ccccc1)NC(=O)[C@@H](NC(=O)CNC(=O)[C@H](CCC(=O)O)NC(=O)[C@@H]1CCCN1C(=O)[C@@H](N)Cc1c[nH]cn1)[C@@H](C)O)[C@@H](C)O)C(C)C)C(=O)N[C@@H](C)C(=O)N[C@@H](Cc1c[nH]c2ccccc12)C(=O)N[C@@H](CC(C)C)C(=O)N[C@H](C(=O)N[C@@H](CCCNC(=N)N)C(=O)NCC(=O)N[C@@H](CCCNC(=N)N)C(=O)NCC(=O)O)C(C)C [NO: 17] here?
Its EC50 is 3.32 ± 0.677 nM.

With CC[C@H](C)[C@H](NC(=O)[C@H](Cc1ccccc1)NC(=O)[C@H](CCC(=O)O)NC(=O)[C@H](CCCCNC(=O)COCCOCCNC(=O)COCCOCCNC(=O)CC[C@H](NC(=O)CCCCCCCCCCCCCCCCC(=O)O)C(=O)O)NC(=O)[C@H](C)NC(=O)[C@H](C)NC(=O)[C@H](CCC(N)=O)NC(=O)CNC(=O)[C@H](CCC(=O)O)NC(=O)[C@H](CC(C)C)NC(=O)[C@H](Cc1ccc(O)cc1)NC(=O)[C@H](CO)NC(=O)[C@H](CO)NC(=O)[C@@H](NC(=O)[C@H](CC(=O)O)NC(=O)[C@H](CO)NC(=O)[C@@H](NC(=O)[C@H](Cc1ccccc1)NC(=O)[C@@H](NC(=O)CNC(=O)[C@H](CCC(=O)O)NC(=O)[C@@H]1CCCN1C(=O)[C@@H](N)Cc1c[nH]cn1)[C@@H](C)O)[C@@H](C)O)C(C)C)C(=O)N[C@@H](C)C(=O)N[C@@H](Cc1c[nH]c2ccccc12)C(=O)N[C@@H](CC(C)C)C(=O)N[C@H](C(=O)N[C@@H](CCCNC(=N)N)C(=O)NCC(=O)N[C@@H](CCCNC(=N)N)C(=O)NCC(=O)O)C(C)C [NO: 18] as the compound, how does the EC50 (human GLP-1R) read?
Its EC50 is 3.12 ± 0.512 nM.

For CC[C@H](C)[C@H](NC(=O)[C@H](Cc1ccccc1)NC(=O)[C@H](CCC(=O)O)NC(=O)[C@H](CCCCNC(=O)COCCOCCNC(=O)COCCOCCNC(=O)CC[C@H](NC(=O)CCCCCCCCCCCCCCCCC(=O)O)C(=O)O)NC(=O)[C@H](C)NC(=O)[C@H](C)NC(=O)[C@H](CCC(N)=O)NC(=O)[C@@](C)(CC(F)(F)F)NC(=O)[C@H](CCC(=O)O)NC(=O)[C@H](CC(C)C)NC(=O)[C@H](Cc1ccc(O)cc1)NC(=O)[C@H](CO)NC(=O)[C@H](CO)NC(=O)[C@@H](NC(=O)[C@H](CC(=O)O)NC(=O)[C@H](CO)NC(=O)[C@@H](NC(=O)[C@H](Cc1ccccc1)NC(=O)[C@@H](NC(=O)CNC(=O)[C@H](CCC(=O)O)NC(=O)[C@@](C)(CC(F)(F)F)NC(=O)[C@@H](N)Cc1c[nH]cn1)[C@@H](C)O)[C@@H](C)O)C(C)C)C(=O)N[C@@H](C)C(=O)N[C@@H](Cc1c[nH]c2ccccc12)C(=O)N[C@@H](CC(C)C)C(=O)N[C@H](C(=O)N[C@@H](CCCNC(=N)N)C(=O)NCC(=O)N[C@@H](CCCNC(=N)N)C(=O)NCC(=O)O)C(C)C [NO: 19], which EC50 (human GLP-1R) is on record?
The EC50 was 0.791 ± 0.0635 nM.

Which EC50 (human GLP-1R) does the source give for CC[C@H](C)[C@H](NC(=O)[C@H](Cc1ccccc1)NC(=O)[C@H](CCC(=O)O)NC(=O)[C@H](CCCCNC(=O)COCCOCCNC(=O)COCCOCCNC(=O)CC[C@H](NC(=O)CCCCCCCCCCCCCCCCC(=O)O)C(=O)O)NC(=O)[C@H](C)NC(=O)[C@H](C)NC(=O)[C@H](CCC(N)=O)NC(=O)CNC(=O)[C@H](CCC(=O)O)NC(=O)[C@H](CC(C)C)NC(=O)[C@H](Cc1ccc(O)cc1)NC(=O)[C@H](CO)NC(=O)[C@H](CO)NC(=O)[C@@H](NC(=O)[C@H](CC(=O)O)NC(=O)[C@H](CO)NC(=O)[C@@H](NC(=O)[C@H](Cc1ccccc1)NC(=O)[C@@H](NC(=O)CNC(=O)[C@H](CCC(=O)O)NC(=O)[C@@](C)(CC(F)(F)F)NC(=O)[C@@H](N)Cc1c[nH]cn1)[C@@H](C)O)[C@@H](C)O)C(C)C)C(=O)N[C@@H](C)C(=O)N[C@@H](Cc1c[nH]c2ccccc12)C(=O)N[C@@H](CC(C)C)C(=O)N[C@H](C(=O)N[C@@H](CCCNC(=N)N)C(=O)NCC(=O)N[C@@H](CCCNC(=N)N)C(=O)NCC(=O)O)C(C)C [NO: 20] here?
Its EC50 is 0.693 ± 0.0557 nM.

With CC[C@H](C)[C@H](NC(=O)[C@H](Cc1ccccc1)NC(=O)[C@H](CCC(=O)O)NC(=O)[C@H](CCCCNC(=O)COCCOCCNC(=O)COCCOCCNC(=O)CC[C@H](NC(=O)CCCCCCCCCCCCCCCCC(=O)O)C(=O)O)NC(=O)[C@H](C)NC(=O)[C@H](C)NC(=O)[C@H](CCC(N)=O)NC(=O)[C@](C)(NC(=O)[C@H](CCC(=O)O)NC(=O)[C@H](CC(C)C)NC(=O)[C@H](Cc1ccc(O)cc1)NC(=O)[C@H](CO)NC(=O)[C@H](CO)NC(=O)[C@@H](NC(=O)[C@H](CC(=O)O)NC(=O)[C@H](CO)NC(=O)[C@@H](NC(=O)[C@H](Cc1ccccc1)NC(=O)[C@@H](NC(=O)CNC(=O)[C@H](CCC(=O)O)NC(=O)[C@](C)(NC(=O)[C@@H](N)Cc1c[nH]cn1)C(F)(F)C(F)(F)F)[C@@H](C)O)[C@@H](C)O)C(C)C)C(F)(F)C(F)(F)F)C(=O)N[C@@H](C)C(=O)N[C@@H](Cc1c[nH]c2ccccc12)C(=O)N[C@@H](CC(C)C)C(=O)N[C@H](C(=O)N[C@@H](CCCNC(=N)N)C(=O)NCC(=O)N[C@@H](CCCNC(=N)N)C(=O)NCC(=O)O)C(C)C [NO: 21] as the compound, how does the EC50 (human GLP-1R) read?
The EC50 was 0.652 ± 0.0417 nM.

For CC[C@H](C)[C@H](NC(=O)[C@H](Cc1ccccc1)NC(=O)[C@H](CCC(=O)O)NC(=O)[C@H](CCCCNC(=O)COCCOCCNC(=O)COCCOCCNC(=O)CC[C@H](NC(=O)CCCCCCCCCCCCCCCCC(=O)O)C(=O)O)NC(=O)[C@H](C)NC(=O)[C@H](C)NC(=O)[C@H](CCC(N)=O)NC(=O)CNC(=O)[C@H](CCC(=O)O)NC(=O)[C@H](CC(C)C)NC(=O)[C@H](Cc1ccc(O)cc1)NC(=O)[C@H](CO)NC(=O)[C@H](CO)NC(=O)[C@@H](NC(=O)[C@H](CC(=O)O)NC(=O)[C@H](CO)NC(=O)[C@@H](NC(=O)[C@H](Cc1ccccc1)NC(=O)[C@@H](NC(=O)CNC(=O)[C@H](CCC(=O)O)NC(=O)[C@](C)(NC(=O)[C@@H](N)Cc1c[nH]cn1)C(F)(F)C(F)(F)F)[C@@H](C)O)[C@@H](C)O)C(C)C)C(=O)N[C@@H](C)C(=O)N[C@@H](Cc1c[nH]c2ccccc12)C(=O)N[C@@H](CC(C)C)C(=O)N[C@H](C(=O)N[C@@H](CCCNC(=N)N)C(=O)NCC(=O)N[C@@H](CCCNC(=N)N)C(=O)NCC(=O)O)C(C)C [NO: 22], which EC50 (human GLP-1R) is on record?
Its EC50 is 0.63 ± 0.0519 nM.
